Reference: patent publication US9428504B2, “7-hydroxy-spiropipiperidine indolinyl antagonists of P2Y1 receptor” (BRISTOL-MYERS SQUIBB COMPANY, priority 2012, dated 2016)

system: human platelet rich plasma (PRP); test: ADP induced platelet aggregation assay; conditions: Homo sapiens, Platelet, read-out: PA IC50 (μM) @ 10 μM ADP, platelet aggregation induced by 10 μM ADP, human PRP

Compound | IC50
CC(C)(C)CN1CCC2(CC1)CN(c1ccccc1NC(=O)Nc1nc3ccc(F)cc3s1)c1c(O)ccc(-c3nc4ccc(F)cc4s3)c12 [Example 148, 1-(6-Fluorobenzo[d]thiazol-2-yl)-3-(2-(4-(6-fluorobenzo[d]thiazol-2-yl)-7-hydroxy-1′-neopentylspiro[indoline-3,4′-piperidin]-1-yl)phenyl)urea] | 0.3 µM
CC(C)(C)CN1CCC2(CC1)CN(c1ccccc1NC(=O)Nc1csc(Cl)n1)c1c(O)cc(F)c(-c3ccc(Cl)cc3)c12 [Example 163, 1-(2-(4-(4-Chlorophenyl)-5-fluoro-7-hydroxy-1′-neopentylspiro[indoline-3,4′-piperidin]-1-yl)phenyl)-3-(2-chlorothiazol-4-yl)urea] | 0.1 µM
CC(C)(C)CN1CCC2(CC1)CN(c1ccccc1NC(=O)Nc1nc3ccc(Cl)cc3s1)c1c(O)cc(F)c(Cl)c12 [Example 94, 1-(2-(4-Chloro-5-fluoro-7-hydroxy-1′-neopentylspiro [indoline-3,4′-piperidine]-1-yl)phenyl)-3-(6-chlorobenzo[d]thiazol-2-yl)urea] | 0.7 µM
CC(C)(C)CN1CCC2(CC1)CN(c1ccccc1NC(=O)Nc1nc3ccc(F)cc3s1)c1c(O)ccc(-c3nc4ccc(Cl)cc4s3)c12 [Example 139, 1-(2-(4-(6-Chlorobenzo[d]thiazol-2-yl)-7-hydroxy-1′-neopentylspiro[indoline-3,4′-piperidin]-1-yl)phenyl)-3-(6-fluorobenzo[d]thiazol-2-yl)urea] | 0.4 µM
CC(C)(C)CN1CCC2(CC1)CN(c1ccccc1NC(=O)Nc1ccc(OC(F)(F)F)cc1)c1c(O)ccc(-c3nc4ccc(Cl)cc4s3)c12 [Example 136, 1-(2-(4-(6-Chlorobenzo[d]thiazol-2-yl)-7-hydroxy-1′-neopentylspiro[indoline-3,4′-piperidin]-1-yl)phenyl)-3-(4-(trifluoromethoxy)phenyl)urea] | 0.5 µM
CC(C)(C)CN1CCC2(CC1)CN(c1ccccc1NC(=O)Nc1nc3ccc(F)cc3s1)c1c(O)ccc(-c3nc4cc(Cl)ccc4s3)c12 [Example 133, 1-(2-(4-(5-Chlorobenzo[d]thiazol-2-yl)-7-hydroxy-1′-neopentylspiro[indoline-3,4′-piperidin]-1-yl)phenyl)-3-(6-fluorobenzo[d]thiazol-2-yl)urea] | 0.3 µM
CC(C)(C)CN1CCC2(CC1)CN(c1ccccc1NC(=O)Nc1csc(Cl)n1)c1c(O)cc(F)c(Cl)c12 [Example 103, 1-(2-(4-Chloro-5-fluoro-7-hydroxy-1′-neopentylspiro [indoline-3,4′-piperidin]-1-yl)phenyl)-3-(2-chlorothiazol-4-yl)urea] | 0.3 µM
CC(C)(C)CN1CCC2(CC1)CN(c1ccc(F)cc1NC(=O)Nc1nc3ccc(F)cc3s1)c1c(O)ccc(Cl)c12 [Example 68, 1-(2-(4-Chloro-7-hydroxy-1′-neopentylspiro[indoline-3,4′-piperidine]-1-yl)-5-fluorophenyl)-3-(6-fluorobenzo[d]thiazol-2-yl)urea] | 0.7 µM
CC(C)(C)CN1CCC2(CC1)CN(c1ccccc1NC(=O)Nc1csc(Cl)n1)c1c(O)ccc(-c3nc4cc(Cl)ccc4s3)c12 [Example 111, 1-(2-(4-(5-Chlorobenzo[d]thiazol-2-yl)-7-hydroxy-1′-neopentylspiro[indoline-3,4′-piperidine]-1-yl)phenyl)-3-(2-chlorothiazol-4-yl)urea] | 0.2 µM

same assay, conditions: read-out: PA IC50 (μM) @ 10 μM ADP; platelet aggregation induced by 10 μM ADP, human PRP

Compound | IC50
CC(C)(C)CN1CCC2(CC1)CN(c1ccccc1NC(=O)Nc1ccc(OC(F)(F)F)cc1)c1c(O)cc(F)c(-c3nc4ccc(F)cc4s3)c12 [Example 151, 1-(2-(5-Fluoro-4-(6-fluorobenzo[d]thiazol-2-yl)-7-hydroxy-1′-neopentylspiro[indoline-3,4′-piperidin]-1-yl)phenyl)-3-(4-(trifluoromethoxy)phenyl)urea] | 0.3 µM
